Assay results from the supplement of paper PMC10307832.

How the values were obtained:
Assay in all cases: relative viability (nuclei count vs DMSO), 5 days (fraction); higher = more cells survive
QS11 + Luminespib = compound: C1CC2=C(C1)C=C(C=C2)OC3=NC(=C4C(=N3)N(C=N4)CC5=CC=C(C=C5)C6=CC=CC=C6)N[C@@H](CC7=CC=CC=C7)CO [QS11] + CCNC(=O)c1noc(-c2cc(C(C)C)c(O)cc2O)c1-c1ccc(CN2CCOCC2)cc1 [Luminespib] (partner 0.01 µM)
Method in brief: (§1)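 Relative viability is defined as nuclei in treated wells over nuclei in vehicle wells. Duplicate plates were run and medians reported. Lung cancer cell lines in 1536-well plates were dosed by pin tool one day after seeding, with one drug or with a fixed anchor-drug dose plus five library-drug doses (not always all listed) in √10 steps, and nuclei were counted after 5 days.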

[1] = compound: C[As](C)SC[C@H](NC(=O)CC[C@H](N)C(=O)O)C(=O)NCC(=O)O [Darinaparsin] + Cc1cc(Nc2cc(N3CCN(C)CC3)nc(Sc3ccc(NC(=O)C4CC4)cc3)n2)n[nH]1 [Tozasertib] (partner 0.1 µM)
Method in brief: as §1

[2] = compound: C[As](C)SC[C@H](NC(=O)CC[C@H](N)C(=O)O)C(=O)NCC(=O)O [Darinaparsin] + O=C(CCCCCCC(=O)Nc1ccccc1)NO [Vorinostat] (partner 1 µM)
Method in brief: as §1

Darinaparsin + Foretinib = compound: C[As](C)SC[C@H](NC(=O)CC[C@H](N)C(=O)O)C(=O)NCC(=O)O [Darinaparsin] + COc1cc2c(Oc3ccc(NC(=O)C4(C(=O)Nc5ccc(F)cc5)CC4)cc3F)ccnc2cc1OCCCN1CCOCC1 [Foretinib] (partner 0.25 µM)
Method in brief: as §1

QS11 + Vorinostat = compound: C1CC2=C(C1)C=C(C=C2)OC3=NC(=C4C(=N3)N(C=N4)CC5=CC=C(C=C5)C6=CC=CC=C6)N[C@@H](CC7=CC=CC=C7)CO [QS11] + O=C(CCCCCCC(=O)Nc1ccccc1)NO [Vorinostat] (partner 1 µM)
Method in brief: as §1

Cell Line: LCLC-97TM1
- relative viability (QS11 + Luminespib; first compound 0.08 µM): 0.709
- relative viability (QS11 + Luminespib; first compound 0.253 µM): 0.907
- relative viability (QS11 + Luminespib; first compound 2.53 µM): 0.768
- relative viability (QS11 + Luminespib; first compound 8 µM): 0.69
- relative viability ([1]; first compound 0.08 µM): 0.215
- relative viability ([1]; first compound 0.8 µM): 0.199
- relative viability ([1]; first compound 2.53 µM): 0.194
- relative viability ([1]; first compound 8 µM): 0.197
- relative viability ([2]; first compound 0.08 µM): 0.882
- relative viability ([2]; first compound 0.8 µM): 0.862
- relative viability ([2]; first compound 2.53 µM): 0.744
- relative viability ([2]; first compound 8 µM): 0.895
- relative viability (Darinaparsin + Foretinib; first compound 0.08 µM): 0.981
- relative viability (Darinaparsin + Foretinib; first compound 0.8 µM): 0.882
- relative viability (Darinaparsin + Foretinib; first compound 2.53 µM): 0.824
- relative viability (Darinaparsin + Foretinib; first compound 8 µM): 1.04
- relative viability (QS11 + Vorinostat; first compound 0.253 µM): 0.722
- relative viability (QS11 + Vorinostat; first compound 2.53 µM): 0.615
- relative viability (QS11 + Vorinostat; first compound 8 µM): 0.85
